“Also recorded” adds a separate entry of the source.
Legend:
MRGPRX2 [1] = target: T1, MRGPRX2 (Homo sapiens, UniProt Q96LB1); experiment: β-hexosaminidase release, primary human skin mast cells; assay type: cell-based
T1 sequence (Q96LB1 1-330): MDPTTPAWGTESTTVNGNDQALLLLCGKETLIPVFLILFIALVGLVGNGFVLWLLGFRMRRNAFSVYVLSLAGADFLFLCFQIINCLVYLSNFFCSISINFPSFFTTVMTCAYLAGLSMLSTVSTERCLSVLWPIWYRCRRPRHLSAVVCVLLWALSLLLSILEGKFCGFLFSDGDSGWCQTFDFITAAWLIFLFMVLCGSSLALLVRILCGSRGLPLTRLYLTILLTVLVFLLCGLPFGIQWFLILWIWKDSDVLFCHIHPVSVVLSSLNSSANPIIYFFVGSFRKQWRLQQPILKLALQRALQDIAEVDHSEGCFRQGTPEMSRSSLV
Experimental: Finally, the effect of the MRGPRX2 antagonist PSB-172656 on MRGPRX2-mediated MC degranulation in primary human skin mast cells isolated from breast skin tissue was investigated. These cells were controlled by flow cytometry for CD117, FcεRI, and MRGPRX2 to ensure their purity (Supplementary Fig. S6), and their functionality was assessed using the MC degranulation β-hexosaminidase release assay (Fig. 6g).
MCs were isolated from breast skin tissue, which was sectioned into strips and digested overnight at 4 °C in 2.4 U/mL dispase type II (Fisher Scientific). […] The purity of the MC cultures was assessed by flow cytometry for CD117 and FcεRI (Miltenyi) and exceeded 95%. […]
For β-hexosaminidase release assays, MCs were fed the day before stimulation with the medium. […] The reaction was stopped by adding 100 µL of sodium carbonate buffer (pH 10.7), and fluorescence was measured at 460 nm and excitation at 355 nm for 0.1 s. The percentage of β-hexosaminidase release was calculated as: […] × 100. […]

[2] = system: C48/80-induced systemic anaphylaxis; experiment: Systemic anaphylactic reaction, plasma CCL2; assay type: in vivo, mouse; conditions: 50 mg/kg b.w., i.p.; C48/80 2 mg/kg i.p.; 4 h; listed as PSB-172656
Experimental: PSB-172656 was further investigated in a mouse model of skin inflammation,[54] determining its effects on C48/80-induced hind paw edema. […] These findings indicate a strong anti-inflammatory effect of the MRGPRX2/B2 antagonist in this mouse model.
30 min after intraperitoneal administration of PSB-172656 at a dose of 50 mg/kg b.w. or vehicle (2% DMSO), an anaphylactic reaction was induced by the intraperitoneal injection of C48/80 at a dose of 2 mg/kg b.w. (in 0.9% NaCl). The non-lethal dose of this compound was assumed based on the literature.[70],[71] The mice were then left in their cages for 4 h. Then, heparin (2500 U/mouse) and sodium thiopental at a dose of 70 mg/kg b.w. were administered intraperitoneally, and blood was collected after decapitation. The plasma concentration of CCL-2 and IL-8 was determined using an ELISA kit (catalog number: E1707Mo, E1481Mo, BT LAB, China).

MRGPRX2 [3] = target: T1, MRGPRX2; experiment: Ca2+ mobilization in LAD2 cells; assay type: cell-based; conditions: stimulation with clomipramine (16.0 µM), paroxetine (18.1 µM), desipramine (34.4 µM); listed as PSB-172656
From the text: PSB-172656 inhibited MRGPRX2-mediated Ca^2+ mobilization in LAD2 cells (see Supplementary Fig. S4).
Blocking of MRGPRX2 by the selective antagonist PSB-172656. […] Arrows indicate addition of stimulus; graphs represent means ± SEM of three independent experiments.

CCc1c(C(C)C)[nH]c2nc3cc(F)c(F)cc3n2c1=O [Compound 24, 3-ethyl-7,8-difluoro-2-isopropylbenzo[4,5]imidazo [1,2-a] pyrimidin-4(1H)-one]
inhibition at 1.25 µM (MRGPRX2 [1]; lowest tested concentration 1.25 µM, versus CST-14, read-out: inhibition of β-hexosaminidase release in human skin MCs): > 50% | effect on MC degranulation in primary human skin mast cells (MRGPRX2 [1]; versus CST-14 (1 µM)): inhibited MC degranulation in response to CST-14 exposure (1 µM) in a concentration-dependent manner | effect on plasma CCL2 levels [2]: significantly decreased levels of CCL2; also recorded: prevented the dramatic increase in CCL2 levels | effect on MRGPRX2-mediated Ca2+ mobilization in LAD2 cells (MRGPRX2 [3]): decreased Ca^2+ mobilization; also recorded: inhibited
